Like-named read-outs stand apart in the source and are kept apart here.
Assays:
SW626 cells = experiment: MTS cell viability assay, SW626; type: cell-based; conditions: Homo sapiens, SW626, 48 h, read-out: IC50 of taxol
Experimental: (§1) The replication-incompetent adenoviral type 5 recombinant vectors encoding bax (Ad/Bax), and Cre recombinase (Ad/Cre), were generated as described. Ad/LacZ, encoding the E. coli LacZ gene, was provided by Robert Gerald (The Center for Transgene Technology and Gene Therapy, Leuven. Belgium). All recombinant adenoviruses were propagated in 293 cells and purified by centrifugation in CsCl gradients by a standard protocol. For viral infection in dishes, the cells were plated in 6 or 96 wells the day before the experiment. The viruses were then added at a designed multiplicity of infection (moi) and incubated for 1 to 2 hours. […]
(§2) Cells were seeded in either 6-well or 96-well plates 24 hours before viral infection. […] Cell viability was determined using a calorimetric method with 3-(4,5-dimehtylthiazol-2-yl)-5-(3-carboxymethoxyphenyl)-2-(4-sulfophenyl)-2H-tetrazolium (MTS) according to the instructions of the manufacturer (Promega). […]
(§3) To determine the cytotoxic effects of Bax, five ovarian cancer cell lines were co-infected with Ad/Bax and Ad/Cre or Ad/lacZ and Ad/Cre at ratio of 5 to 1 at a total moi of 100. After 48 hours, cell viability was determined by MTS assays (FIG. 11). […]
(§4) Stable overexpression of Bax in some cancer cell lines synergizes the killing effect of chemotherapy or radiotherapy. […] Cell viability was measured by an MTS assay. […]

SKOV3.ip1 cells = experiment: MTS cell viability assay, SKOV3.ip1; type: cell-based; conditions: Homo sapiens, 48 h, read-out: IC50 of taxol
Experimental: as §1, §2, §3, §4

[1] = system: primary ovarian cancer cells from ascites of patients; experiment: MTS cell viability assay, primary ovarian cancer cells; type: cell-based, human
Experimental: Primary ovarian cancer cells were isolated by affinity purification from ascites obtained from patients with ovarian cancer. Fresh ascites was centrifuged to collect cells in suspension. The cells were then washed and resuspended in PBS with 0.1% BSA. The CC49 antibody (provided by Dr. Jeffrey Schlom, NIH, Bethesda, Md.), which specifically recognizes the pancarcinomatous antigen TAG-72, was added to the cell suspension at a concentration of 1 μg/10^7 cells, and incubated at 4° C. for one hour. To isolate the immuno-complex formed by the CC49 antibody and the TAG-72 expressing tumor cells, magnetic Dynabeads (Dynal Inc. Lake success, N.Y.) coated with a secondary anti-panmouse IgG antibody were added at a ratio of 4 beads/cell, according to the protocol of the manufacturer. The bead-targeted complexes were then washed and captured with a magnetic particle concentrator (Dynal Inc.). Finally, the purified cells were released from the beads by brief trypsinization and recovered in RPMI complete medium.
as §2

[2] = combined treatment with Bax (Ad/Bax plus Ad/Cre, moi 100)

Question: For CC(=O)O[C@H]1C(=O)[C@@]2(C)[C@H]([C@H](OC(=O)c3ccccc3)[C@]3(O)C[C@H](OC(=O)[C@H](O)[C@@H](NC(=O)c4ccccc4)c4ccccc4)C(C)=C1C3(C)C)[C@]1(OC(C)=O)CO[C@@H]1C[C@@H]2O [taxol], which IC50 (SW626 cells; [2]) is on record?
Answer: 5 µg/mL

Question: What about the IC50 (SW626 cells; control cells) of the same compound?
Answer: 31 µg/mL

Question: And the IC50 (SKOV3.ip1 cells; [2])?
Answer: 13 µg/mL

Question: And the IC50 (SKOV3.ip1 cells; control cells)?
Answer: 39 µg/mL

Question: And the “cell death (MTS)” value ([1]; taxol 20 μg/ml alone, 48 hours)?
Answer: 15%

Question: And the “cell death (MTS)” value ([1]; taxol 20 μg/ml combined with Bax (Ad/Bax and Ad/Cre, 200 moi))?
Answer: over 50%
